Laboratory results as given in ChEMBL document CHEMBL4371023, “Synthesis of new betulinic acid/betulin-derived dimers and hybrids with potent antimalarial and antiviral activities” (Bioorg Med Chem, 2019).

Key:
Plasmodium falciparum [1] = experiment: Antimalarial activity against ring stage Plasmodium falciparum 3D7 infected in type A-positive human erythrocytes after 72 hrs by SYBR green 1 dye-based fluorescence assay; format: functional, organism-based; details: 3D7, 72 h
Human betaherpesvirus 5 [2] = experiment: Antiviral activity against recombinant HCMV AD169 expressing GFP infected in human foreskin fibroblasts measured after 7 days by GFP-based multi-round replication assay; format: functional, organism-based; details: Human betaherpesvirus 5, strain AD169, 168 h
Plasmodium falciparum [3] = experiment: Potency index, ratio of betulin EC50 to compound EC50 for antimalarial activity against ring stage Plasmodium falciparum 3D7 infected in type A-positive human erythrocytes; format: functional
Human betaherpesvirus 5 [4] = experiment: Potency index, ratio of artesunic acid EC50 to compound EC50 for antiviral activity against recombinant HCMV AD169 expressing GFP infected in human foreskin fibroblasts; format: functional, strain AD169
Human betaherpesvirus 5 [5] = experiment: Potency index, ratio of betulinic acid EC50 to compound EC50 for antiviral activity against recombinant HCMV AD169 expressing GFP infected in human foreskin fibroblasts; format: functional, strain AD169
Plasmodium falciparum [6] = experiment: Potency index, ratio of betulinic acid EC50 to compound EC50 for antimalarial activity against ring stage Plasmodium falciparum 3D7 infected in type A-positive human erythrocytes; format: functional

## C=C(C)[C@@H]1CC[C@]2(COC(=O)CCC(=O)O[C@@H]3O[C@@H]4O[C@@]5(C)CC[C@H]6[C@H](C)CC[C@@H]([C@H]3C)[C@@]46OO5)CC[C@]3(C)[C@H](CC[C@@H]4[C@@]5(C)CC[C@H](O)C(C)(C)[C@@H]5CC[C@]43C)[C@@H]12
Plasmodium falciparum [1]
  EC50: 255 nM
Human betaherpesvirus 5 [2]
  EC50: 880 nM
Plasmodium falciparum [3]
  Ratio EC50: 20

## C=C(C)[C@@H]1CC[C@]2(C(=O)O)CC[C@]3(C)[C@H](CC[C@@H]4[C@@]5(C)CC[C@H](OC(=O)CCC(=O)O[C@@H]6O[C@@H]7O[C@@]8(C)CC[C@H]9[C@H](C)CC[C@@H]([C@H]6C)[C@@]79OO8)C(C)(C)[C@@H]5CC[C@]43C)[C@@H]12
Human betaherpesvirus 5 [4]
  Ratio EC50: 23
Human betaherpesvirus 5 [5]
  Ratio EC50: 15
Plasmodium falciparum [1]
  EC50: 85 nM
Human betaherpesvirus 5 [2]
  EC50: 240 nM
Plasmodium falciparum [6]
  Ratio EC50: 16

## C[C@H]1[C@@H](O)O[C@@H]2O[C@@]3(C)CC[C@H]4[C@H](C)CC[C@@H]1[C@@]24OO3 [ARTENIMOL]
Plasmodium falciparum [1]
  EC50: 2.6 nM
Human betaherpesvirus 5 [2]
  EC50: > 10000 nM

## C=C(C)[C@@H]1CC[C@]2(C(=O)O)CC[C@]3(C)[C@H](CC[C@@H]4[C@@]5(C)CC[C@H](O)C(C)(C)[C@@H]5CC[C@]43C)[C@@H]12 [BETULINIC ACID]
Plasmodium falciparum [1]
  EC50: 1420 nM
Human betaherpesvirus 5 [2]
  EC50: 3620 nM

## C=C(C)[C@@H]1CC[C@]2(CO)CC[C@]3(C)[C@H](CC[C@@H]4[C@@]5(C)CC[C@H](O)C(C)(C)[C@@H]5CC[C@]43C)[C@@H]12 [BETULIN]
Plasmodium falciparum [1]
  EC50: 3940 nM
Human betaherpesvirus 5 [2]
  EC50: 1990 nM

## CCN(CC)CCCC(C)Nc1ccnc2cc(Cl)ccc12 (stereo not given) [CHLOROQUINE PHOSPHATE]
Plasmodium falciparum [1]
  EC50: 8.3 nM
